These results are taken from ChEMBL document CHEMBL1157528, “Mixed tetraoxanes containing the acetone subunit as antimalarials” (Bioorg Med Chem, 2008).

For orientation: half-life means how long it takes for the measured level to halve. By IC50 is commonly meant the concentration that gives 50% inhibition. The low end stands for higher potency, the high end for lower potency. Broadly, the IC90 is the concentration needed for an effect of 90%. Read a low IC90 as an effect from little substance. What is called GI50 is the concentration that inhibits growth by half. Higher therefore signals less potent growth inhibition. The LC50 is the concentration that kills 50% of the test population. A higher LC50 goes with a less lethal substance. The TGI is the concentration giving total growth inhibition. Low readings indicate greater sensitivity of the cells, high ones lower sensitivity of the cells.

A short description of series [1]: Metabolic stability in human liver microsomes assessed as half life at 10 uM. In kind it is ADME, Microsome. (Liver microsomes are a subcellular fraction often used to study metabolism.)
Series [2] concerns Plasmodium falciparum. As to the kind of experiment: microbe, parasite or virus in culture. The note with it: W2.
Description: Antimalarial activity against chloroquine and pyrimethamine-resistant Plasmodium falciparum W2
Series [3] deals with Plasmodium falciparum. Put plainly: microbe, parasite or virus in culture. The note with it: TM91C235.
Description: Antimalarial activity against mefloquine, chloroquine and quinine-resistant Plasmodium falciparum TM91C235
Series [4] relates to Plasmodium falciparum. Put plainly: microbe, parasite or virus in culture. The note with it: RCS.
Description: Antimalarial activity against chloroquine-resistant, mefloquine-sensitive Plasmodium falciparum RCS
For series [5], the system named is Plasmodium falciparum. As to the kind of experiment: microbe, parasite or virus in culture. The note with it: D6.
Description: Antimalarial activity against chloroquine and pyrimethamine-sensitive Plasmodium falciparum D6
Series [6] is described as follows: Metabolic stability in mouse liver microsomes assessed as half life at 10 uM. Format: ADME, Microsome.
Series [7] is described as follows: Cytotoxicity against human NCI60 cells. Format: functional.
The test system of series [8] is Plasmodium falciparum. Put plainly: Relative activity against Plasmodium falciparum TM91C235 as fold-lower IC90/IC50 ratio relative to mefloquine.
Series [9] relates to Plasmodium falciparum. As to the kind of experiment: Relative activity against Plasmodium falciparum W2 as ratio of IC90 to IC50. Format: functional.
In series [10] the test system is Plasmodium berghei. Put plainly: Antimalarial activity as parasite-free survivors at day 31 of Plasmodium berghei KBG173 infected CD1 mice (Mus musculus) at 320 mg/kg/day peroral dose. Format: functional, organism-based.
In series [11] the test system is Plasmodium berghei. Put plainly: Antimalarial activity as survival time against Plasmodium berghei KBG173 infected CD1 mice (Mus musculus) at 80 mg/kg/day peroral dose 3 - 5 days post infection. Format: functional. The conditions noted are these: route oral.
Series [12] concerns Plasmodium berghei. As to the kind of experiment: Antimalarial activity as survival time in Plasmodium berghei KBG173 infected CD1 mice (Mus musculus) at 320 mg/kg/day peroral dose. In kind it is functional. The note with it: route oral.
Series [13] deals with Plasmodium berghei. As to the kind of experiment: Antimalarial activity as survival time in Plasmodium berghei KBG173 infected CD1 mice (Mus musculus) at 20 mg/kg/day peroral dose. Format: functional. The conditions noted are these: route oral.
For series [14], the system named is Plasmodium berghei. Put plainly: Antimalarial activity as parasite-free survivors at day 31 of Plasmodium berghei KBG173 infected CD1 mice (Mus musculus) at 20 mg/kg/day peroral dose. In kind it is functional, organism-based.
The test system of a further series is A498. As to the kind of experiment: Antiproliferative activity against human A498 cells. Format: functional.

Each structure is given as a SMILES string. Active and inactive are the calls of the source. The calls are words filed in the database; no cut-off is given here.

As for `CNC(=O)CC[C@@H](C)[C@H]1CC[C@H]2[C@@H]3[C@H](OC(C)=O)C[C@@H]4CC5(CC[C@]4(C)[C@H]3C[C@H](OC(C)=O)[C@]12C)OOC(C)(C)OO5`, the half-life at 10 µM in series [1] and in series [6] was greater than 60 min each time. Further, the IC50 in the series with Plasmodium falciparum [2] turned out to be 18.1 nM; with Plasmodium falciparum [3], 31.3 nM; with Plasmodium falciparum [4], 11.6 nM; in the series with Plasmodium falciparum [5], 46.9 nM. Besides, the IC90 with Plasmodium falciparum [2] is 20.7 nM; in the series with Plasmodium falciparum [3], 74.8 nM; in the series on Plasmodium falciparum [4] it was 22.3 nM; in the series on Plasmodium falciparum [5], 78.3 nM. In [7], this compound came in with a GI50 of 4470 nM. The LC50 in [7] amounted to 47900 nM. Besides, the TGI in series [7] was 18200 nM.
Consider `CCN(CC)CCCC(C)Nc1ccnc2cc(Cl)ccc12` (stereo not drawn) [CHLOROQUINE], for which the IC90 in the series with Plasmodium falciparum [4] was 397 nM; in the series with Plasmodium falciparum [5], 17.6 nM.
Turning to `O[C@@H](c1cc(C(F)(F)F)nc2c(C(F)(F)F)cccc12)[C@H]1CCCCN1` [MEFLOQUINE], in the series on Plasmodium falciparum [8], the “fold-lower IC90/IC50 ratio vs mefloquine” value is on record as 1.5. In the series with Plasmodium falciparum [4], this compound registered an IC50 of 2.33 nM and an IC90 of 5 nM. Also, the Ratio with Plasmodium falciparum [9] was 1.71.
Turning to `COC(=O)CC[C@@H](C)[C@H]1CC[C@H]2[C@@H]3[C@H](OC(C)=O)C[C@@H]4CC5(CC[C@]4(C)[C@H]3C[C@H](OC(C)=O)[C@]12C)OOC(C)(C)OO5`, the result in the series with Plasmodium berghei [10] and with Plasmodium berghei [14] was inactive. Besides, the Survival in the series with Plasmodium berghei [11] came to 16 days; in the series with Plasmodium berghei [12], 18 days; in the series on Plasmodium berghei [13], 13 days. Also, the IC50 in the series on Plasmodium falciparum [2] worked out at 11.7 nM; in the series with Plasmodium falciparum [3], 26 nM; in the series on Plasmodium falciparum [5], 15 nM. The IC90 in the series on Plasmodium falciparum [2] worked out at 20.7 nM; with Plasmodium falciparum [3] it was 57.3 nM; in the series with Plasmodium falciparum [5], 26.7 nM.
Regarding `CCCNC(=O)CC[C@@H](C)[C@H]1CC[C@H]2[C@@H]3[C@H](OC(C)=O)C[C@@H]4CC5(CC[C@]4(C)[C@H]3C[C@H](OC(C)=O)[C@]12C)OOC(C)(C)OO5`, the half-life at 10 µM in [1] amounted to 24 min; in [6], 25 min. Also, the IC50 turned out to be 18.1 nM with Plasmodium falciparum [2] and 7.4 nM with Plasmodium falciparum [5]. The IC90 with Plasmodium falciparum [2] came out at 29.2 nM; in the series on Plasmodium falciparum [5], 16.2 nM.
Turning to `CC(=O)O[C@H]1C[C@H]2[C@@H]([C@H](OC(C)=O)C[C@@H]3CC4(CC[C@@]32C)OOC(C)(C)OO4)[C@@H]2CC[C@H]([C@H](C)CCC(=O)NN)[C@@]12C`, the IC50 in the series on Plasmodium falciparum [2] came out at 16.4 nM; in the series on Plasmodium falciparum [3], 28.5 nM; in the series on Plasmodium falciparum [4], 7.03 nM; in the series on Plasmodium falciparum [5], 28.1 nM. Further, the IC90 was 22.9 nM with Plasmodium falciparum [2], 38.1 nM in the series with Plasmodium falciparum [3], 19.5 nM in the series on Plasmodium falciparum [4] and 46.3 nM in the series on Plasmodium falciparum [5].
Turning to `C[C@H](CCC(N)=O)[C@H]1CC[C@H]2[C@@H]3[C@H](O)C[C@@H]4CC5(CC[C@]4(C)[C@H]3C[C@H](O)[C@]12C)OOC(C)(C)OO5`, the half-life at 10 µM in series [1] and in [6] was greater than 60 min each time. Moreover, the IC50 came to 153 nM in the series on Plasmodium falciparum [2], 228 nM in the series with Plasmodium falciparum [3], 38.7 nM in the series on Plasmodium falciparum [4] and 215 nM in the series on Plasmodium falciparum [5]. Further, the IC90 was 234 nM in the series on Plasmodium falciparum [2], 498 nM in the series on Plasmodium falciparum [3], 168 nM in the series on Plasmodium falciparum [4] and 347 nM in the series with Plasmodium falciparum [5]. Also, the GI50 in the series on A498 came out at 92 nM; in series [7], 980 nM. For the same compound, the TGI was found to be 710 nM in the series with A498 and 3800 nM in [7]. In the series on A498 (read-out: LC50 (the source's name)), the CC50 came to 11500 nM. In series [7], this compound displayed an LC50 of 11200 nM.
Consider `CC(=O)O[C@H]1C[C@H]2[C@@H]([C@H](OC(C)=O)C[C@@H]3CC4(CC[C@@]32C)OOC(C)(C)OO4)[C@@H]2CC[C@H]([C@H](C)CCC(=O)N(C)C)[C@@]12C`, for which the half-life at 10 µM in series [1] amounted to 49 min; in series [6], 17 min. Further, the IC50 in the series on Plasmodium falciparum [2] was found to be 17.3 nM; with Plasmodium falciparum [3], 25.1 nM; with Plasmodium falciparum [4], 7.19 nM; in the series on Plasmodium falciparum [5], 35.5 nM. Besides, the IC90 in the series with Plasmodium falciparum [2] worked out at 31.6 nM; in the series with Plasmodium falciparum [3], 50.9 nM; in the series on Plasmodium falciparum [4], 14 nM; in the series on Plasmodium falciparum [5], 71.5 nM. This compound gave a GI50 in series [7] of 17000 nM. Moreover, in series [7], the LC50 was 75900 nM. The compound also yielded a TGI in [7] of 41700 nM.
Turning to `CC(=O)O[C@H]1C[C@H]2[C@@H]([C@H](OC(C)=O)C[C@@H]3CC4(CC[C@@]32C)OOC(C)(C)OO4)[C@@H]2CC[C@H]([C@H](C)CCC(=O)Nc3ccccc3)[C@@]12C`, in the series on Plasmodium falciparum [8], the “fold-lower IC90/IC50 ratio vs mefloquine” value is listed as 3. The Survival worked out at 25 days with Plasmodium berghei [11], 23 days in the series on Plasmodium berghei [12] and 23 days with Plasmodium berghei [13]. Also, the half-life at 10 µM came to 19 min in [1] and 16 min in [6]. For the same compound, the IC50 was determined as 5.02 nM in the series with Plasmodium falciparum [2], 15.8 nM in the series with Plasmodium falciparum [3], 1.89 nM with Plasmodium falciparum [4] and 6.97 nM with Plasmodium falciparum [5]. Also, the concentration for an effect of 90% (IC90) in the series on Plasmodium falciparum [2] was 14.3 nM; in the series with Plasmodium falciparum [3] it was 20.9 nM; in the series with Plasmodium falciparum [4] it was 4.45 nM; in the series on Plasmodium falciparum [5], 20.8 nM.
As to `C[C@@H]1CC[C@H]2[C@@H](C)C(=O)O[C@@H]3O[C@@]4(C)CC[C@@H]1[C@]32OO4` [ARTEMISININ], the values for the IC50 in the series with Plasmodium falciparum [2] and in the series with Plasmodium falciparum [5] were 6.7 nM and 9 nM, respectively. For the same compound, the IC90 with Plasmodium falciparum [2] was found to be 11.5 nM; with Plasmodium falciparum [3], 13 nM; in the series with Plasmodium falciparum [4] it was 13 nM; in the series with Plasmodium falciparum [5], 12.8 nM.
For the compound `CC(=O)O[C@H]1C[C@H]2[C@@H]([C@H](OC(C)=O)C[C@@H]3CC4(CC[C@@]32C)OOC(C)(C)OO4)[C@@H]2CC[C@H]([C@H](C)CCC(=O)O)[C@@]12C`, the outcome in the series on Plasmodium berghei [10] and with Plasmodium berghei [14] was inactive. Also, the values for the Survival in the series with Plasmodium berghei [11], in the series with Plasmodium berghei [12] and in the series on Plasmodium berghei [13] were 15 days, 17 days and 10 days, respectively. Further, the half-life at 10 µM in series [1] and in series [6] was greater than 60 min each time. Moreover, the IC50 with Plasmodium falciparum [2] was 36 nM; with Plasmodium falciparum [3], 60.4 nM; in the series on Plasmodium falciparum [5] it was 46.5 nM. The IC90 was 94.7 nM in the series with Plasmodium falciparum [2], 231 nM in the series with Plasmodium falciparum [3] and 96.3 nM in the series on Plasmodium falciparum [5]. The compound also yielded a GI50 in series [7] of 15500 nM. Moreover, the LC50 in series [7] was found to be 75900 nM. In [7], this compound came in with a TGI of 37200 nM.
`CC(=O)O[C@H]1C[C@H]2[C@@H]([C@H](OC(C)=O)C[C@@H]3CC4(CC[C@@]32C)OOC(C)(C)OO4)[C@@H]2CC[C@H]([C@H](C)CCC(N)=O)[C@@]12C`: the half-life at 10 µM in series [1] and in series [6] was greater than 60 min in each case. For the same compound, the IC50 was determined as 9.4 nM with Plasmodium falciparum [2] and 12.2 nM with Plasmodium falciparum [5]. In series [7], this compound came in with a GI50 of 8710 nM. Besides, in [7], the LC50 was determined as 79400 nM. This compound also came in with a TGI in series [7] of 34700 nM.
On to `COC(=O)CNC(=O)CC[C@@H](C)[C@H]1CC[C@H]2[C@@H]3[C@H](OC(C)=O)C[C@@H]4CC5(CC[C@]4(C)[C@H]3C[C@H](OC(C)=O)[C@]12C)OOC(C)(C)OO5`, for which the half-life at 10 µM in series [1] turned out to be 70 min. In the series on Plasmodium falciparum [2], the IC50 amounted to 5.98 nM. This compound returned a 50% inhibitory concentration (IC50) in the series with Plasmodium falciparum [5] of 14.3 nM. Besides, the half-life at 10 µM in [6] came to 32 min. In [7], this compound gave a GI50 of 8510 nM, a median lethal concentration (LC50) of 77600 nM and a TGI of 33900 nM.
